# Tested on: serum antibodies of test subjects Serum 1B-8B
# Settings: sera S1B-S8B; streptavidin immobilized peptide
substance,measurement,value
Biotin-aminocaproyl-SRPRVRNIP [Peptide 2B],"binding of serum antibodies (immune response), absorbance at 450 nm",especially effective in binding with certain antibodies
